Measured values as given in PubChem BioAssay AID1845216 (Molecular Pharmacology Branch, DTP, NCI, 2023).

System: SW 982 tumor spheroid viability
Assay: Anticancer human tumor SW 982 cell line growth inhibition;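 also: spheroids exposed to compound for 7 days before readout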
Settings: spheroids with HUVEC and MSC; for IC50: curve of first compound; for viability, T/C: stronger effect = lower value
Summary of the method: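 Complex spheroids of malignant cells with endothelial cells and mesenchymal stem cells; agents alone or combined, from near clinical Cmax (or 10 microM if unknown) down in half-log steps, 0.25% DMSO final.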

[1] = second compound 30 pM, first compound 0.0316 µM
[2] = second compound 30 pM, first compound 0.1 µM
[3] = second compound 30 pM, first compound 0.316 µM
[4] = second compound 30 pM, first compound 1 µM
[5] = second compound 30 pM, first compound 3.16 µM
[6] = second compound 30 pM, first compound 10 µM
[7] = second compound 94.9 pM, first compound 0.0316 µM
[8] = second compound 94.9 pM, first compound 0.1 µM
[9] = second compound 94.9 pM, first compound 0.316 µM
[10] = second compound 94.9 pM, first compound 1 µM
[11] = second compound 94.9 pM, first compound 3.16 µM
[12] = second compound 94.9 pM, first compound 10 µM
[13] = second compound 0.0003 µM, first compound 0.0316 µM
[14] = second compound 0.0003 µM, first compound 0.1 µM
[15] = second compound 0.0003 µM, first compound 0.316 µM
[16] = second compound 0.0003 µM, first compound 1 µM
[17] = second compound 0.0003 µM, first compound 3.16 µM
[18] = second compound 0.0003 µM, first compound 10 µM
[19] = second compound 0.000949 µM, first compound 0.0316 µM
[20] = second compound 0.000949 µM, first compound 0.1 µM
[21] = second compound 0.000949 µM, first compound 0.316 µM
[22] = second compound 0.000949 µM, first compound 1 µM
[23] = second compound 0.000949 µM, first compound 3.16 µM
[24] = second compound 0.000949 µM, first compound 10 µM
[25] = second compound 0.003 µM, first compound 0.0316 µM
[26] = second compound 0.003 µM, first compound 0.1 µM
[27] = second compound 0.003 µM, first compound 0.316 µM
[28] = second compound 0.003 µM, first compound 1 µM
[29] = second compound 0.003 µM, first compound 3.16 µM
[30] = second compound 0.003 µM, first compound 10 µM

Structure (SMILES) | IC50 (second compound 30 pM) [µM] | IC50 (second compound 94.9 pM) [µM] | IC50 (second compound 0.0003 µM) [µM] | IC50 (second compound 0.000949 µM) [µM] | IC50 (second compound 0.003 µM) [µM] | viability, T/C [1] [%] | viability, T/C [2] [%] | viability, T/C [3] [%] | viability, T/C [4] [%] | viability, T/C [5] [%] | viability, T/C [6] [%] | viability, T/C [7] [%] | viability, T/C [8] [%] | viability, T/C [9] [%] | viability, T/C [10] [%] | viability, T/C [11] [%] | viability, T/C [12] [%] | viability, T/C [13] [%] | viability, T/C [14] [%] | viability, T/C [15] [%] | other results
CC(C)n1c(=O)n(C)c2cnc3cc(F)c(-c4ccc(OCCCN5CCCCC5)nc4)cc3c21 + COc1cc2c(cc1O)CCNC21CSC2c3c(OC(C)=O)c(C)c4c(c3C(COC1=O)N1C(O)C3Cc5cc(C)c(OC)c(O)c5C(C21)N3C)OCO4 | 2.85 | 5.66 | 2.45 | < 0.0316 | < 0.0316 | 83.8 | 87.3 | 83.9 | 76.5 | 47.3 | 42.7 | 80.6 | 80.5 | 79.1 | 75.1 | 59.8 | 40.4 | 69.2 | 65.5 | 72.4 | viability, T/C [16]: 64.5%; viability, T/C [17]: 45.9%; viability, T/C [18]: 37%; viability, T/C [19]: 32.3%; viability, T/C [20]: 30.3%; viability, T/C [21]: 30.6%; viability, T/C [22]: 43.6%; viability, T/C [23]: 33.8%; viability, T/C [24]: 21.6%; viability, T/C [25]: 0.57%; viability, T/C [26]: 0.53%; viability, T/C [27]: 0.47%; viability, T/C [28]: 0.5%; viability, T/C [29]: 0.57%; viability, T/C [30]: 0.64%
CC1COCCN1c1cc(-c2ccnn2C)c2ccnc(-c3ccn[nH]3)c2n1 (stereo not given) + COc1cc2c(cc1O)CCNC21CSC2c3c(OC(C)=O)c(C)c4c(c3C(COC1=O)N1C(O)C3Cc5cc(C)c(OC)c(O)c5C(C21)N3C)OCO4 | < 0.0316 | < 0.0316 | < 0.0316 | < 0.0316 | < 0.0316 | 30.3 | 21.2 | 16.3 | 14.8 | 16.5 | 19.5 | 28 | 19.8 | 14.6 | 12.7 | 16.6 | 18.9 | 18.7 | 16.3 | 12.6 | viability, T/C [16]: 10.9%; viability, T/C [17]: 14.7%; viability, T/C [18]: 14.6%; viability, T/C [19]: 13.8%; viability, T/C [20]: 10.5%; viability, T/C [21]: 6.7%; viability, T/C [22]: 4.79%; viability, T/C [23]: 3.55%; viability, T/C [24]: 1.4%; viability, T/C [25]: 1.23%; viability, T/C [26]: 1.25%; viability, T/C [27]: 0.44%; viability, T/C [28]: 0.7%; viability, T/C [29]: 0.39%; viability, T/C [30]: 0.98%
COc1cc(C)[nH]c(=O)c1CN1CCc2c(Cl)cc(C(OC)C3COC3)c(Cl)c2C1=O (stereo not given) + COc1cc2c(cc1O)CCNC21CSC2c3c(OC(C)=O)c(C)c4c(c3C(COC1=O)N1C(O)C3Cc5cc(C)c(OC)c(O)c5C(C21)N3C)OCO4 | > 10 | > 10 | > 10 | < 0.0316 | < 0.0316 | 98.5 | 107 | 90.2 | 97.7 | 102 | 107 | 90.5 | 95.6 | 95.7 | 103 | 99.8 | 91.7 | 86.9 | 82.9 | 89.1 | viability, T/C [16]: 91.3%; viability, T/C [17]: 84.7%; viability, T/C [18]: 85.3%; viability, T/C [19]: 38.3%; viability, T/C [20]: 48.7%; viability, T/C [21]: 38%; viability, T/C [22]: 45.6%; viability, T/C [23]: 47.3%; viability, T/C [24]: 28.3%; viability, T/C [25]: 0.42%; viability, T/C [26]: 0.99%; viability, T/C [27]: 0.77%; viability, T/C [28]: 0.49%; viability, T/C [29]: 0.64%; viability, T/C [30]: 1.1%
COc1ccc([C@@H](O)c2cc(-c3ncnc4cc(N5CCOCC5)ccc34)c(F)cc2Cl)nn1 + COc1cc2c(cc1O)CCNC21CSC2c3c(OC(C)=O)c(C)c4c(c3C(COC1=O)N1C(O)C3Cc5cc(C)c(OC)c(O)c5C(C21)N3C)OCO4 | 7.19 | 4.6 | 1.07 | < 0.0316 | < 0.0316 | 102 | 102 | 96.4 | 88.8 | 79.6 | 38.8 | 96.3 | 97.3 | 93.4 | 70.8 | 65.9 | 26.9 | 84.1 | 83.1 | 84 | viability, T/C [16]: 48%; viability, T/C [17]: 23.6%; viability, T/C [18]: 6.67%; viability, T/C [19]: 36.2%; viability, T/C [20]: 32.6%; viability, T/C [21]: 19.4%; viability, T/C [22]: 4.23%; viability, T/C [23]: 0.86%; viability, T/C [24]: 0.73%; viability, T/C [25]: 0.88%; viability, T/C [26]: 0.57%; viability, T/C [27]: 0.41%; viability, T/C [28]: 1.06%; viability, T/C [29]: 1.12%; viability, T/C [30]: 1.01%
[2H]c1nc(C)nc([2H])c1-c1cc(NC[C@@H](C)c2cccc3c(C(=O)NC)ccnc23)ncn1 + COc1cc2c(cc1O)CCNC21CSC2c3c(OC(C)=O)c(C)c4c(c3C(COC1=O)N1C(O)C3Cc5cc(C)c(OC)c(O)c5C(C21)N3C)OCO4 | > 10 | > 10 | > 10 | < 0.0316 | < 0.0316 | 91.1 | 100 | 98 | 93.3 | 90.3 | 101 | 95.7 | 90.7 | 98.1 | 93.8 | 89.4 | 91.2 | 87.2 | 83.2 | 79.4 | viability, T/C [16]: 70.3%; viability, T/C [17]: 74.9%; viability, T/C [18]: 75.4%; viability, T/C [19]: 37.3%; viability, T/C [20]: 26.5%; viability, T/C [21]: 44.4%; viability, T/C [22]: 44.1%; viability, T/C [23]: 42.6%; viability, T/C [24]: 21.9%; viability, T/C [25]: 0.62%; viability, T/C [26]: 1.1%; viability, T/C [27]: 1.05%; viability, T/C [28]: 0.69%; viability, T/C [29]: 0.48%; viability, T/C [30]: 0.77%
